# Data: publication PMC12067858 (Febs Letters, 2025)
# Molecular target: T1, NcAA9C (Neurospora crassa, UniProt Q7SHI8)
# T1 construct: gene gh61-3; copper-saturated
# T1 sequence (Q7SHI8 17-359): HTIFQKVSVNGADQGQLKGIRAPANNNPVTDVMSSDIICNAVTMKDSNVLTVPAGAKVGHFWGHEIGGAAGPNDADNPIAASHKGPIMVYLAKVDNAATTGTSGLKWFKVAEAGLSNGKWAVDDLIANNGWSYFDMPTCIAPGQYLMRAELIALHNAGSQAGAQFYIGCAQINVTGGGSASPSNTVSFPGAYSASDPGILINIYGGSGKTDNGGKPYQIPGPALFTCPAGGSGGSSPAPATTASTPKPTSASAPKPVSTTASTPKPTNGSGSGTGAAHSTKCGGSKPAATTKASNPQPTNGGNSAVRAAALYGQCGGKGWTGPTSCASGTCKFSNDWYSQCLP
# Assay: HPAEC-PAD of cellotriose product
# Format: biochemical
# Settings: 1 uM enzyme, 100 uM ascorbate, 100 uM H2O2, 50 mM MOPS pH 7.0, 30 C
smiles,measurement,value
OC[C@H]1O[C@@H](O[C@H]2[C@H](O)[C@@H](O)[C@H](O[C@H]3[C@H](O)[C@@H](O)[C@H](O[C@H]4[C@H](O)[C@@H](O)[C@H](O[C@H]5[C@H](O)[C@@H](O)C(O)O[C@@H]5CO)O[C@@H]4CO)O[C@@H]3CO)O[C@@H]2CO)[C@H](O)[C@@H](O)[C@@H]1O (stereo partly shown) [cellopentaose],HPAEC-PAD of cellotriose product,"conversion of small, soluble and easily diffusible cellopentaose by NcAA9C"
